IC50 data for one compound are collected here from publication PMC3175485 (2011).

The experiment addresses PDE4D3 (Homo sapiens, UniProt Q08499). As to the kind of experiment: biochemical.

Structures are written as SMILES.

Chain of PDE4D3 (Q08499 1-673 isoform Q08499-2): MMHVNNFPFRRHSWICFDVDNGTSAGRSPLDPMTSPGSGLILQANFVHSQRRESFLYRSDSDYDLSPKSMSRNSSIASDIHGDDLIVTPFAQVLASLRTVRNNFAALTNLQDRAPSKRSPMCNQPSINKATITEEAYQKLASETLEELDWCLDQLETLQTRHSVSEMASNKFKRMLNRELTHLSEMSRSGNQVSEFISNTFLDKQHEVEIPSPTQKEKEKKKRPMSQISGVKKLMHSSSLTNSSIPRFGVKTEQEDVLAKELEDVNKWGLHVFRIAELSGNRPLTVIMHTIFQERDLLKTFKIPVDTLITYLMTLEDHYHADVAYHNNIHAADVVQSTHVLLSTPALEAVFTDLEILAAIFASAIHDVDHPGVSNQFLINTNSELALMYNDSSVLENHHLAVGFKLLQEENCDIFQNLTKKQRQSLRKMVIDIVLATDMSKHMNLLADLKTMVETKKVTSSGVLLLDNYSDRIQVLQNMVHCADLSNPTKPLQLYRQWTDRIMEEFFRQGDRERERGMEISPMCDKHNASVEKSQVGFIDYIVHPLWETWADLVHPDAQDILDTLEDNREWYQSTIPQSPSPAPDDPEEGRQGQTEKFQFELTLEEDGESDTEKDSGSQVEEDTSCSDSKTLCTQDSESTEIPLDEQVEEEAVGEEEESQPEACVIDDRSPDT

As usually defined, the IC50 is the concentration needed to halve the response being measured. Low values mean inhibition by little substance, high ones a need for much substance. Compound `COc1ccc(-c2cc(C(F)F)nn2-c2ccc(S(N)(=O)=O)cc2)cc1F` [deracoxib] registered a 50% inhibitory concentration (IC50) of 3.6 ± 0.5 µM.
